Source: article PMC5267425, “Identification of small molecule modulators of HIV-1 Tat and Rev protein accumulation” (Retrovirology, 2017)

Test system: cellular gene expression in HeLa rtTA HIV∆Mls cells

## Cc1cc(NCc2cccnc2)n2ncc(-c3ccc(Cl)cc3)c2n1 [Compound 791, 3-(4-chlorophenyl)-5-methyl-N-(3-pyridinylmethyl)pyrazolo[1,5-a]pyrimidin-7-amine]
  SETMAR expression fold change: 0.745
  SFPQ expression fold change: 0.604
  SFRS13A expression fold change: 1.164
  SH2D4A expression fold change: 1.164
  SH3BGR Mean fold change: 1.680
  SHPK expression fold change: 0.869
  SIAH1 Mean fold change: 1.613
  SIAH2 Mean fold change: 1.494
  SIKE1 expression fold change: 1.279
  SKA2 expression fold change: 0.700
  SLC1A5 Mean fold change: 2.013
  SLC6A9 Mean fold change: 1.846
  SLC6A15 Mean fold change: 1.859
  SLC9A3 Mean fold change: 1.796
  SLC10A3 expression fold change: 0.873
  SLC16A1 expression fold change: 1.148
  SLC22A15 Mean fold change: 2.322
  SLC25A23 expression fold change: 0.855
  SLC26A11 expression fold change: 1.295
  SLC29A1 expression fold change: 0.814
  SLC35B3 expression fold change: 1.282
  SLC38A6 expression fold change: 1.215
  SLC39A6 expression fold change: 1.389
  SMARCA1 expression fold change: 0.805
  SMARCA5 expression fold change: 0.811
  SMARCC1 expression fold change: 0.845
  SMC2 expression fold change: 0.736
  SMC4 expression fold change: 0.769
  SMEK2 expression fold change: 1.332
  SMS expression fold change: 0.802
  SMTN expression fold change: 0.528
  SNAPC5 Mean fold change: 1.498
  SNX7 expression fold change: 0.747
  SNX10 Mean fold change: 2.399
  SOD1 expression fold change: 0.780
  SOX12 expression fold change: 0.979
  SPCS1 expression fold change: 1.045
  SPR expression fold change: 0.726
  SPRED2 Mean fold change: 2.080
  SPRYD4 expression fold change: 0.835
  SPTAN1 expression fold change: 0.613
  SQSTM1 expression fold change: 1.336
  SRPK1 expression fold change: 1.142
  SS18L1 expression fold change: 1.184
  SSR4 expression fold change: 1.121
  ST5 expression fold change: 0.715
  ST6GALNAC4 expression fold change: 1.270
  ST7L expression fold change: 1.363
  STAG3L4 Mean fold change: 1.432
  STAMBP expression fold change: 1.360
  STARD4 expression fold change: 0.603
  STK24 expression fold change: 1.344
  STK36 expression fold change: 1.268
  STK38 expression fold change: 0.829
  STK40 expression fold change: 1.375
  STMN1 expression fold change: 0.737
  STX4 expression fold change: 1.358
  SUN1 expression fold change: 0.880
  SUPT3H expression fold change: 1.089
  SUPT16H expression fold change: 1.113
  SWAP70 expression fold change: 0.801
  SYNPO expression fold change: 0.615
  TAB1 expression fold change: 1.071
  TADA2B expression fold change: 1.205
  TAF1C expression fold change: 1.085
  TAF3 expression fold change: 1.132
  TAF4B expression fold change: 0.875
  TAGLN2 expression fold change: 0.573
  TATDN1 Mean fold change: 1.544
  TBC1D23 expression fold change: 0.831
  TBC1D25 expression fold change: 0.892
  TBCCD1 expression fold change: 1.231
  TBCD expression fold change: 0.769
  TBL1X expression fold change: 1.190
  TBX1 expression fold change: 0.707
  TCEA1 Mean fold change: 2.377
  TCTA expression fold change: 0.691
  TEX2 expression fold change: 1.153
  TEX261 expression fold change: 0.826
  TFAP2A expression fold change: 0.742
  TGDS expression fold change: 1.239
  TGFA Mean fold change: 2.015
  THAP2 Mean fold change: 1.505
  TIGD2 expression fold change: 1.326
  TIGD6 Mean fold change: 1.617
  TIMELESS expression fold change: 1.079
  TIMM17B expression fold change: 1.193
  TIMP4 Mean fold change: 2.098
  TIPRL expression fold change: 1.158
  TLE3 expression fold change: 0.824
  TM4SF1 expression fold change: 0.658
  TM4SF19 Mean fold change: 2.453
  TM9SF4 expression fold change: 1.144
  TMED9 expression fold change: 0.713
  TMEM33 expression fold change: 1.367
  TMEM51 expression fold change: 1.103
  TMEM55A Mean fold change: 1.593
  TMEM68 expression fold change: 1.389
  TMEM69 expression fold change: 0.879
  TMEM120B expression fold change: 1.358
  TMEM126B expression fold change: 1.318
  TMEM128 Mean fold change: 1.475
  TMEM133 expression fold change: 0.678
  TMEM134 expression fold change: 1.333
  TMEM136 Mean fold change: 1.653
  TMEM138 expression fold change: 1.174
  TMEM167B expression fold change: 1.381
  TMEM184B expression fold change: 0.777
  TMSB10 expression fold change: 0.763
  TNKS2 expression fold change: 1.115
  TNS3 expression fold change: 0.625
  TOM1 expression fold change: 1.142
  TOP1 Mean fold change: 1.433
  TOP2B expression fold change: 0.838
  TOR3A Mean fold change: 2.169
  TPD52 expression fold change: 0.814
  TPK1 Mean fold change: 1.463
  TRAPPC6B Mean fold change: 1.516
  TRIB3 Mean fold change: 9.286
  TRIM5 expression fold change: 0.541
  TRIM8 expression fold change: 1.137
  TRIM11 expression fold change: 1.129
  TRIM38 expression fold change: 1.268
  TRIP12 expression fold change: 0.897
  TRIP13 expression fold change: 0.826
  TRMT2A expression fold change: 1.232
  TRNP1 expression fold change: 0.822
  TRNT1 expression fold change: 1.353
  TRUB2 expression fold change: 0.915
  TSEN2 Mean fold change: 1.417
  TSEN15 Mean fold change: 1.483
  TSPAN14 expression fold change: 1.164
  TSR2 expression fold change: 0.870
  TSSK6 Mean fold change: 1.615
  TTC9C expression fold change: 1.292
  TTC13 Mean fold change: 1.539
  TTC17 Mean fold change: 1.465
  TTLL4 expression fold change: 1.144
  TTRAP Mean fold change: 1.772
  TUBA1C expression fold change: 0.608
  TUBGCP4 expression fold change: 1.159
  TXNDC11 expression fold change: 0.839
  TXNRD2 expression fold change: 0.682
  UBAP2L expression fold change: 0.784
  UBAP2 expression fold change: 0.809
  UBE2CBP expression fold change: 1.206
  UBE2E3 expression fold change: 0.823
  UBE2F expression fold change: 1.199
  UBE3A expression fold change: 1.133
  UBL5 expression fold change: 0.749
  UBXN2B Mean fold change: 1.412
  UNC13D expression fold change: 0.656
  UPF1 expression fold change: 0.745
  UPP1 Mean fold change: 1.696
  USP3 expression fold change: 1.367
  USP13 expression fold change: 0.835
  USP43 expression fold change: 0.526
  USP45 expression fold change: 1.299
  VHL expression fold change: 1.356
  VPS4B expression fold change: 0.923
  VPS45 expression fold change: 1.169
  WARS Mean fold change: 4.515
  WBSCR16 expression fold change: 0.745
  WDFY1 expression fold change: 1.061
  WDR67 Mean fold change: 1.463
  WDR73 expression fold change: 1.398
  WDR85 Mean fold change: 1.430
  WDR86 Mean fold change: 1.956
  WI2-3658N16.1 Mean fold change: 2.029
  XBP1 Mean fold change: 1.642
  XPNPEP3 Mean fold change: 1.531
  XPO5 expression fold change: 1.247
  XPO7 expression fold change: 0.941
  XPOT Mean fold change: 2.053
  XRCC6BP1 expression fold change: 1.139
  YAP1 expression fold change: 1.104
  YARS Mean fold change: 1.734
  ZBED1 expression fold change: 0.668
  ZBED5 expression fold change: 1.276
  ZBTB8A expression fold change: 1.143
  ZBTB26 expression fold change: 1.398
  ZBTB34 expression fold change: 1.406
  ZC3H4 expression fold change: 0.785
  ZC3H7A expression fold change: 0.841
  ZC3H8 Mean fold change: 1.710
  ZC3H14 expression fold change: 1.133
  ZCCHC4 expression fold change: 1.276
  ZCCHC8 expression fold change: 1.219
  ZCCHC9 expression fold change: 1.340
  ZFAND1 Mean fold change: 1.472
  ZFP30 expression fold change: 1.219
  ZFP36L2 expression fold change: 1.274
  ZFP64 expression fold change: 1.227
  ZFP161 Mean fold change: 1.683
  ZFYVE20 expression fold change: 1.201
  ZFYVE27 expression fold change: 1.318
  ZHX2 Mean fold change: 1.409
  ZIC2 Mean fold change: 1.423
  ZNF12 expression fold change: 1.245
  ZNF25 Mean fold change: 1.879
  ZNF28 expression fold change: 1.179
  ZNF91 expression fold change: 1.253
  ZNF133 expression fold change: 1.224
  ZNF184 expression fold change: 1.308
  ZNF193 expression fold change: 1.323
  ZNF195 expression fold change: 1.289
  ZNF217 Mean fold change: 1.446
  ZNF239 Mean fold change: 1.543
  ZNF252 Mean fold change: 1.609
  ZNF295 Mean fold change: 1.482
  ZNF319 expression fold change: 1.386
  ZNF320 expression fold change: 1.362
  ZNF354A expression fold change: 1.350
  ZNF354B Mean fold change: 1.466
  ZNF410 Mean fold change: 1.435
  ZNF419 Mean fold change: 1.789
  ZNF433 Mean fold change: 1.676
  ZNF445 expression fold change: 1.297
  ZNF493 Mean fold change: 1.482
  ZNF500 expression fold change: 1.175
  ZNF547 expression fold change: 1.209
  ZNF554 expression fold change: 1.212
  ZNF558 Mean fold change: 1.502
  ZNF566 expression fold change: 1.349
  ZNF567 expression fold change: 1.133
  ZNF592 expression fold change: 1.148
  ZNF619 expression fold change: 1.402
  ZNF664 expression fold change: 1.294
  ZNF669 expression fold change: 1.198
  ZNF700 expression fold change: 1.242
  ZNF706 expression fold change: 1.373
  ZNF746 expression fold change: 1.115
  ZNF747 expression fold change: 1.143
  ZNF764 expression fold change: 1.241
  ZNF770 Mean fold change: 1.508
  ZNF780A expression fold change: 1.192
  ZNF780B expression fold change: 1.397
  ZNF800 expression fold change: 1.234
  ZRSR2 expression fold change: 1.249
  ZSCAN12 Mean fold change: 1.516
  ZSCAN30 Mean fold change: 1.472
  ZSWIM7 expression fold change: 1.339
  fold change in expression of gene APBB1: 0.456
  fold change in expression of gene C19orf21: 0.393
  fold change in expression of gene CACNG4: 0.431
  fold change in expression of gene CAV1: 0.418
  fold change in expression of gene CDKN2AIP: 0.467
  fold change in expression of gene CITED2: 0.434
  fold change in expression of gene COL9A3: 0.376
  fold change in expression of gene CRISPLD2: 0.367
  fold change in expression of gene CSDC2: 0.362
  fold change in expression of gene CTGF: 0.371
  fold change in expression of gene CYR61: 0.369
